Literature values, collected in US7005448B2, “Aminoalkyl-benzofuran-5-ol compounds for the treatment of glaucoma” (priority 2001, dated 2006).
Where two headings read alike, the source gives them in different places.

Experiments:
[1] = tested on: rabbit eye; conditions: for intraocular pressure in the anterior chamber of the eye: topically applied to the rabbit eye [Meyer-Bothling et al. 1993]
[2] = tested on: α1 receptor
[3] = tested on: human subjects
[4] = tested on: glaucomatous monkeys
[5] = biological target: 5-HT2A receptor (Homo sapiens, UniProt P28223)
[6] = tested on: animals; conditions: in vivo
[7] = intracamerally [Krootila et al. 1987]

Sequence of 5-HT2A receptor (P28223 whole entry): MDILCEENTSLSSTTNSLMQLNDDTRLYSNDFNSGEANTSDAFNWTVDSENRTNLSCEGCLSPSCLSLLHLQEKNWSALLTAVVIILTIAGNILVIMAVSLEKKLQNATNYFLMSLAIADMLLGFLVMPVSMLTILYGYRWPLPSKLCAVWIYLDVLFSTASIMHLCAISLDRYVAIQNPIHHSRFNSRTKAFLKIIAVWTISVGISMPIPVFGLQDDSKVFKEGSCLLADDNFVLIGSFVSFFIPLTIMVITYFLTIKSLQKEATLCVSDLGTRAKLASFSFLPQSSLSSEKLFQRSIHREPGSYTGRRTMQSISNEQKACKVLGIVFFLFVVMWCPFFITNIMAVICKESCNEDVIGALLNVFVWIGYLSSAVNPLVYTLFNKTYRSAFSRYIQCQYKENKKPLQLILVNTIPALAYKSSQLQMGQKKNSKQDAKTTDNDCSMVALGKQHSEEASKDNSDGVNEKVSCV

SMILES: NCCc1c[nH]c2ccc(C(N)=O)cc12 [Compound 5-CT, 5-carboxamidotryptainine]
- intraocular pressure in the anterior chamber of the eye [1]: raise intraocular pressure

SMILES: O=C(c1ccc(F)cc1)C1CCN(CCn2c(=O)[nH]c3ccccc3c2=O)CC1 [Ketanserin]
- α1 receptor antagonist activity [2]: significant α1 antagonist activity
- IOP ([3]; man): lowers IOP
- IOP ([1]; rabbits): lowers IOP

SMILES: COc1ccccc1N1CCN(CCCNc2c(C)c(=O)n(C)c(=O)n2C)CC1 [5-methylurapidil]
- IOP [4]: lowered IOP
- α1 receptor antagonist activity [2]: relatively potent α1 receptor antagonists

SMILES: NCCc1c[nH]c2ccc(O)cc12 [Compound 5-HT, 5-hydroxy tryptamine]
- IOP [1, 7]: raised IOP
- blood-aqueous barrier [1, 7]: breakdown of the blood-aqueous barrier
- IOP ([1]; topically applied [Krootila et al. 1987]): lowers IOP
- intraocular pressure in the anterior chamber of the eye [1]: raise intraocular pressure

SMILES: CNCCC(Oc1ccc(C(F)(F)F)cc1)c1ccccc1 (stereo not shown) [fluoxetine]
- IOP ([3]; human subjects, oral administration): raises IOP

SMILES: CC[C@@H](CO)NC(=O)[C@@H]1C=C2c3cccc4c3c(cn4C)C[C@H]2N(C)C1 [Methysergide]
- IOP ([1]; rabbits): lowered IOP

SMILES: COc1cccc(CCc2ccccc2OCC(CN(C)C)OC(=O)CCC(=O)O)c1 (stereo not shown) [Saprogrelate]
- IOP ([3]; man, dosed topically or orally): lowers IOP
- IOP ([1]; rabbits, dosed topically or orally): lowers IOP

SMILES: c1ccc2c(c1)OC[C@H](CNCCCOc1ccc3c(c1)OCO3)O2 [MKC-242]
- α1 receptor antagonist activity [2]: relatively potent α1 receptor antagonists
- IOP ([1]; rabbits): lower IOP

SMILES: CC(N)Cc1c2ccoc2c(Br)c2ccoc12 (stereo not shown) [The Nichols compound]
- affinity for the 5-HT2A receptor [5]: high affinity
- generalization to LSD in drug discrimination studies [6]: generalize to LSD

SMILES: CCCN(CCC)C1CCc2cccc(O)c2C1 (stereo not shown) [8-hydroxy DPAT]
- IOP ([1]; rabbits): lower IOP
